SMILES strings stand for the structures.

In general, Ki refers to the dissociation constant of the complex between target and ligand, obtained from inhibition or displacement. Read a high Ki as weaker binding.

Test [1] deals with T1, human NK1 receptor (Homo sapiens, UniProt P25103).
T1 construct: IM-9 human lymphoblasts specifically expressing the NK1 receptor; endogenous in cells; host or cells: IM-9 human lymphoblasts
Briefly: Affinity for the human NK1 receptor on IM-9 human lymphoblasts. It counts as binding. From the text:
(§1) The affinity for the human NK1 and NK2 receptors was studied on IM-9 human lymphoblasts specifically expressing the NK1 receptor as described by D. G. Payan et al. (J. Biol. Chem. 1986, 261, 14321-14329) and on CHO-K1 cells transfected with the NK2 receptor according to the CellPhect transfection kit (Pharmacia).

The test system of test [2] is substance P-induced bronchoconstriction. Briefly: Inhibition of substance P-induced bronchoconstriction in guinea pigs. It counts as in vivo. The protocol: The study is carried out on male Hartley guinea pigs (Charles River) weighing 300 to 400 g on average. The study is carried out on anesthetized (ethyl carbamate 1.5 g/kg) and Flaxedilcurarized (0.2 mg/kg iv) animals ventilated at a rate of 60 per minute and a volumetric flow of 10ml/kg. The animals are pretreated with pyrilamine (1 mg/kg iv) and propranolol (1 mg/kg iv).
The criterion of judgment of bronchoconstriction is the increase in tracheal insufflation pressure (TIP) induced by the iv injection of substance P at a dose of 2 nM/kg iv, each animal being its own control. Injection of the test product is performed with reference to the time TO of the injection of the product.
The results are expressed as a dose inhibiting substance P-induced bronchoconstriction by 50%, this percentage being calculated according to the following formula: (ΔTIP before product-ΔTIP after product)/ΔTIP before product (expressed as a percentage).

The target in test [3] is T2, NK1 receptors (Oryctolagus cuniculus, UniProt G1SEI7).
T2 construct: two isolated preparations of smooth muscle were used: the rabbit vena cava (RVC); from tissue; host or cells: rabbit vena cava
T2 sequence (G1SEI7 1-407): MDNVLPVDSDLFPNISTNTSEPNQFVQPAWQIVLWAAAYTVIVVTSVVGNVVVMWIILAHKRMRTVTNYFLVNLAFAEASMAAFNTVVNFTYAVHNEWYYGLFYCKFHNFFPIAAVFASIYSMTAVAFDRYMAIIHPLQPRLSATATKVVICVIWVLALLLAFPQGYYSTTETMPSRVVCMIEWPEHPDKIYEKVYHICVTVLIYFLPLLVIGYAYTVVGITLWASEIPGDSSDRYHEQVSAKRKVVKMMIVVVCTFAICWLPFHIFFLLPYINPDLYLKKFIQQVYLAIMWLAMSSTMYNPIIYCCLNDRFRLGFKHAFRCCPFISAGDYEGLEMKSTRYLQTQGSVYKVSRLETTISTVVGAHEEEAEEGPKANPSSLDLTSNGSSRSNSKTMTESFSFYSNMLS
Briefly: Isolated smooth muscle: rabbit vena cava (RVC) contraction, antagonist pA2. It counts as biochemical. The source says:
(§2) In order to evaluate the functional activity of the compounds of the invention as neurokinin antagonists, two isolated preparations of smooth muscle were used: the rabbit vena cava (RVC) and the rabbit pulmonary artery without endothelium (RPA), the contractile responses of which are mediated, respectively, by the NK1 and NK2 receptors as shown by D. Jukic et al. (Life Sci. 1991, 49, 1463-1469).
(§3) The antagonist power of the compounds of the invention was expressed in the form of pA2 as defined by O. Arunlakshana and H. O. Schild (Brit. J. Pharmacol. 1959, 14, 48-58).

Test [4] concerns capsaicin-induced plasma extravasation. The test can be described thus: Inhibition of capsaicin-induced plasma extravasation in guinea pig bronchi. The following applies: iv 5 minutes before capsaicin 200 μg/kg iv, Evans blue. It counts as in vivo, guinea pigs. On the procedure:
The effect of the compounds on the plasma extravasation caused by intravenous injection of capsaicin (200 μg/kg) in guinea pigs was evaluated in the bronchi according to the method described by Robineau et al (Eur. J. Pharmacol., 1995, 294, 677-684). The accumulation in the bronchi of Evans blue injected IV 1 minute before capsaicin was quantified by spectrophotometry after extraction of the dye with acetone. The inhibitory activity of the compounds via the intravenous route 5 minutes before capsaicin was expressed as a 50% inhibitory dose in comparison to a control group (8 animals per group).

For test [5], the target named is T3, NK2 receptors (Oryctolagus cuniculus, UniProt P79218).
T3 construct: the rabbit pulmonary artery without endothelium (RPA); from tissue; host or cells: rabbit pulmonary artery without endothelium
T3 sequence (P79218 1-384): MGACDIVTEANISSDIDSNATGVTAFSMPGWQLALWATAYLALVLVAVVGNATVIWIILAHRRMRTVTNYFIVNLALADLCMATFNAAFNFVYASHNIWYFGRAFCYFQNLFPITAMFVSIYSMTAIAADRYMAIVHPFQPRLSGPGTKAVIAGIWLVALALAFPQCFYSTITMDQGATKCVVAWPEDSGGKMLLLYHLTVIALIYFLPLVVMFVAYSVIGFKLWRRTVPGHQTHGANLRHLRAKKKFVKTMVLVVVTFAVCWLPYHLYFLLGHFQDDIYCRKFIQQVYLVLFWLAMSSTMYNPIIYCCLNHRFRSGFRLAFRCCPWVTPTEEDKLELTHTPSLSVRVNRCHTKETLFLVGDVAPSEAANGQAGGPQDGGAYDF
Briefly: Isolated smooth muscle: rabbit pulmonary artery without endothelium (RPA) contraction, antagonist pA2. Format: biochemical.
Text: as §2, §3

The target of test [6] is T4, human NK2 receptor (Homo sapiens, UniProt P21452).
T4 construct: expressed in transfected cells; host or cells: CHO-K1
T4 sequence (P21452 1-398): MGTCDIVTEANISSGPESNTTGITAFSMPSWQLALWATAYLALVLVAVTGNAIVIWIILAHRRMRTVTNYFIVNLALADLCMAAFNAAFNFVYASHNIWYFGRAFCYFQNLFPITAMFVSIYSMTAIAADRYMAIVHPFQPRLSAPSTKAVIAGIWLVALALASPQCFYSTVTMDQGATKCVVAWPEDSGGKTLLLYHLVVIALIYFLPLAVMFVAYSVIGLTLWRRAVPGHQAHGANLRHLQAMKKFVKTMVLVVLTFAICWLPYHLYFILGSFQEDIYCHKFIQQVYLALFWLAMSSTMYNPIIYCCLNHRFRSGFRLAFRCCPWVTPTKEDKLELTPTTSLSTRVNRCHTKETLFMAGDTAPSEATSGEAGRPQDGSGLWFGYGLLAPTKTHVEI
Briefly: Affinity for the human NK2 receptor on transfected CHO-K1 cells. Format: binding. The conditions noted are these: CHO-K1 cells transfected with the NK2 receptor.
Text: as §1

T1 sequence (P25103 whole entry): as the sequence (G1SEI7 1-407) above, with F12S, D189N, A369P, E371D, N376T, G386C, N391D, Y402S, M405V counted along it

Turning to `O=C(OCc1cc(C(F)(F)F)cc(C(F)(F)F)c1)[C@H](Cc1c[nH]c2ccccc12)NC(=O)[C@@H]1C[C@@H](O)CN1C(=O)c1cn(CCCCc2nnn[nH]2)c2ccccc12.[K]` [Example 1, {1-[4-(1H-Tetrazol-5-yl)butyl]-3-indolyl}carbonyl-Hyp-Trp-OBzl(3,5-ditrifluoromethyl) potassium salt], the Ki stood at 2.4 nM in test [1] and 4200 nM in test [6]. Moreover, the “ED50, dose inhibiting substance P-induced bronchoconstriction by 50%” value in test [2] (anesthetized guinea pigs, substance P 2 nM/kg iv, tracheal insufflation pressure) was found to be 0.06 mg/kg. Besides, in test [2] (substance P-induced bronchoconstriction, guinea pigs), the “Potency relative to compound of Example 1 of Patent EP 684,257” value is “two and a half times as potent”. The “pA2 in relation to the NK1 receptors” value in test [3] is given as 8.9. Besides, the “ED50, inhibition of capsaicin-induced plasma extravasation” value in test [4] came to 0.026 mg/kg. For the same molecule, in test [5], the “pA2 in relation to the NK2 receptors” value was found to be 5.2.

The values above are taken from patent publication US5708016A, “Pseudopeptides derived from neurokinins” (Adir et Compagnie, priority 1996, dated 1998).
